The subject of data set [1] is Akt phosphorylation (Ser473) in CLL cells. Put plainly: Akt phosphorylation in CLL cells stimulated with anti-IgM. Particulars: CL27c 10 nM–10 µM. The data set is classed as cell-based, human. The protocol:
CLL cells (#Hs 505.T, ATCC® CRL-7306™) were cultured with RPMI additioned with 10% FBS and 100 μg/ml penicillin and streptomycin. The day of the assay CLL cells were seeded in 96-well plate at a concentration of 7 × 10^4 cells/ml in starving medium, RPMI free. The cells were starved for 6 h and subsequently pretreated for 1.5 h with CL27c at different concentrations. The cells were stimulated for 15 min with 15 μg/ml of goat anti-Human IgM-MU chain specific antibody (Sigma-Aldrich #I0759-1MG) and proteins were extracted with Laemmli buffer.
For all cell types, phosphorylated Akt (P-Akt, Ser 473, 1:100, Cell Signaling Technology #4060) production was detected by western blot analysis and quantified with ChemiDoc™ XRS system. P-Akt signals are normalized on endogenous. For the calculation of EC50 values, a percentage of residual P-Akt was calculated for each inhibitor concentration by using the control vehicle as 100%. To derive the EC50, all data were plotted on a dose response curve (Graph Pad software) and the EC50 was calculated by using the non-linear regression fit (equation [log agonist] vs response–variable slope).
Supplementary Figure 3: Inhibition of Akt phosphorylation at Ser473 (pAkt473) […]
panel). […] The respective EC50 was calculated by using nonlinear

The nature of data set [2]: Microsomial stability, mouse. Particulars: mouse liver microsomes, NADPH. The data set is classed as in vitro ADME. The protocol: To define whether this prodrug was suitable for inhaled administration, CL27c was studied to evaluate selected ADME (absorption, distribution, metabolism, and excretion) and pharmacokinetic properties. First, stability of CL27c and CL27e was analyzed in mouse plasma (Supplementary Table 1) and in mouse, rat, and human liver microsomes in the presence of nicotinamide adenine dinucleotide phosphate (NADPH; Supplementary Table 2). Next, clearance of CL27c was analyzed in C57BL/6J mice after either intra-venous or oral administration. […] Clearance of CL27c and CL27e after oral administration could not be determined due to their low bioavailability (Supplementary Table 3). […]
obtained at 200 × magnification were analyzed using the software Image -J (NIH, USA). Results were expressed as extracellular matrix deposition area (pixels). […]
Akt phosphorylation was measured by western blot as described in the “Western blot analysis” in […]
Cells were obtained from Lymph nodes and spleen from naive C57Bl/6J and purified with CD4 T cell isolation Kit (Miltenyi Biotec #130-104-454) and with CD25 biotin (eBioscience #13-0252-81) and microbeads anti-biotin (Miltenyi Biotec #130-090-485). […] Positive stained cells were analyzed with FlowJo X software after removal of doublets events and debris through FSC-A/FSC-H gating.

Data set [3] is described as follows: Microsomial stability, rat. The conditions noted are these: rat liver microsomes, NADPH. Format: in vitro ADME. As to the method: To define whether this prodrug was suitable for inhaled administration, CL27c was studied to evaluate selected ADME (absorption, distribution, metabolism, and excretion) and pharmacokinetic properties. First, stability of CL27c and CL27e was analyzed in mouse plasma (Supplementary Table 1) and in mouse, rat, and human liver microsomes in the presence of nicotinamide adenine dinucleotide phosphate (NADPH; Supplementary Table 2). Next, clearance of CL27c was analyzed in C57BL/6J mice after either intra-venous or oral administration. […] Clearance of CL27c and CL27e after oral administration could not be determined due to their low bioavailability (Supplementary Table 3). Next, pharmacokinetics after inhalation was studied in C57BL/6J mice after delivering an aerosolized micro-suspension of CL27c. As shown in Table 1 and Supplementary Fig. 1b, CL27c dose-dependently reached the lungs and its metabolite CL27e was detectable after inhalation of the highest dose. […] Therefore, the inhaled prodrug promotes local effects but prevents systemic absorption of pharmacologically relevant amounts of the active compound. […]
All tests for the microsomial stability of CL27c were conducted by the Istituto di Ricerche Biomediche (RBM) SpA – Merck Serono, Ivrea, Italy. […]
Then, cells […]
pretreated with different doses of CL27c were incubated at 37°C and 5% CO 2 for 10 minutes. […]
On the technique in general: Liver microsomes are vesicles of endoplasmic reticulum, rich in cytochrome P450 enzymes.

SMILES strings stand for the structures.

Take `COC(=O)c1cccc(Cn2cc(-c3cccc4c(=O)cc(N5CCOCC5)[nH]c34)nn2)c1` [CL27c]: the Akt/PKB phosphorylation result in data set [1] is “readily reduced Akt/PKB phosphorylation”. For the same compound, in data set [2], the “Clint (intrinsic clearance)” value is reported as 0.1 ± 0.02 ml/min/mg prot and the t1/2 is listed as 12.4 ± 2.0 min. In data set [3], the “Clint (intrinsic clearance)” value was found to be 0.2 ± 0.005 ml/min/mg prot and the t1/2 is listed as 5.9 ± 0.1 min.

(Values after paper PMC6290777, “Inhalation of the prodrug PI3K inhibitor CL27c improves lung function in asthma and fibrosis” (Nature Communications, 2018).)
